Measurements published in US10548871B2, “Low-dose doxepin formulations and methods of making and using the same” (Pernix Sleep, Inc., priority 2007, dated 2020).
Counter-ions that a name gives are not always drawn.

What was measured:
[1] = Biopharmaceutic Classification System; cited from earlier work
adult insomnia patients = assay: Polysomnographic endpoints in adult insomnia patients treated with 3 mg doxepin
[2] = Pharmacokinetic performance of low dose doxepin capsules and tablets in healthy adult volunteers, crossover design; type: in vivo, human; conditions: majority of subjects
Description: The pharmacokinetic performance of oral, low dose doxepin formulations is well suited to the treatment of insomnia. The pharmacokinetic performance of capsules containing 1, 3 or 6 mg doxepin, as well as tablets containing 6 mg doxepin, was evaluated in healthy adult volunteers under a crossover design.
Of further interest to the pharmacokinetic performance of these doxepin formulations was the time necessary to reach certain plasma concentrations. Reaching particular concentrations in plasma can play a role in establishing therapeutic benefit. In particular, doxepin concentrations in plasma reach 0.05 ng/mL in the majority of subjects for all doses within 90 minutes after dosing. […] Such pharmacokinetic performance is beneficial in the treatment of insomnia, as reaching measurable plasma concentrations in a timely manner can be preferred for facilitating the onset of sleep.

SMILES	solubility [1]	maintenance of sleep (adult insomnia patients)	residual sedation (adult insomnia patients)	sleep onset, on average, after bedtime (adult insomnia patients; polysomnographic endpoint) [min]	time after dosing to reach plasma concentration of 0.1 ng/mL ([2]; 3 and 6 mg doses) [min]	time after dosing for doxepin plasma concentration to reach 0.05 ng/mL ([2]; all doses) [min]
CN(C)CCC=C1c2ccccc2COc2ccccc21 [doxepin HCl, Doxepin HCl]	high solubility					
CN(C)CCC=C1c2ccccc2COc2ccccc21 [doxepin]		persisted throughout the entire night (8 hours)	not followed by residual sedation	27	≤ 60	≤ 90
